How the values were obtained:
Format in all cases: cell-based
EGFR A767insASV = EGFR A767insASV (Homo sapiens, UniProt P00533, cells depend on it, form not given); assay: Ba/F3 cell viability, EGFR A767insASV; conditions: logarithm of IC50, second listing in Table 2 (r23)
Procedure: (§1) 72 hours after transduction, 2 μg/ml puromycin (Invitrogen) was added to the medium.

EGFR H773L/V774M = biological target: T1, EGFR H773L/V774M (Homo sapiens, UniProt P00533, H773L/V774M); assay: Ba/F3 cell viability, EGFR H773L/V774M; conditions: logarithm of IC50
T1 construct: expressed in transfected cells; host or cells: Ba/F3 (retroviral transduction, pBABE-Puro-based vectors)
Procedure: as §1

EGFR A767insTLA = biological target: T2, EGFR A767insTLA (Homo sapiens, UniProt P00533, INS767TLA); assay: Ba/F3 cell viability, EGFR A767insTLA; conditions: logarithm of IC50
T2 construct: expressed in transfected cells; host or cells: Ba/F3 (retroviral transduction, pBABE-Puro-based vectors)
T2 sequence (P00533 with tags, fused parts or gaps INS767TLA): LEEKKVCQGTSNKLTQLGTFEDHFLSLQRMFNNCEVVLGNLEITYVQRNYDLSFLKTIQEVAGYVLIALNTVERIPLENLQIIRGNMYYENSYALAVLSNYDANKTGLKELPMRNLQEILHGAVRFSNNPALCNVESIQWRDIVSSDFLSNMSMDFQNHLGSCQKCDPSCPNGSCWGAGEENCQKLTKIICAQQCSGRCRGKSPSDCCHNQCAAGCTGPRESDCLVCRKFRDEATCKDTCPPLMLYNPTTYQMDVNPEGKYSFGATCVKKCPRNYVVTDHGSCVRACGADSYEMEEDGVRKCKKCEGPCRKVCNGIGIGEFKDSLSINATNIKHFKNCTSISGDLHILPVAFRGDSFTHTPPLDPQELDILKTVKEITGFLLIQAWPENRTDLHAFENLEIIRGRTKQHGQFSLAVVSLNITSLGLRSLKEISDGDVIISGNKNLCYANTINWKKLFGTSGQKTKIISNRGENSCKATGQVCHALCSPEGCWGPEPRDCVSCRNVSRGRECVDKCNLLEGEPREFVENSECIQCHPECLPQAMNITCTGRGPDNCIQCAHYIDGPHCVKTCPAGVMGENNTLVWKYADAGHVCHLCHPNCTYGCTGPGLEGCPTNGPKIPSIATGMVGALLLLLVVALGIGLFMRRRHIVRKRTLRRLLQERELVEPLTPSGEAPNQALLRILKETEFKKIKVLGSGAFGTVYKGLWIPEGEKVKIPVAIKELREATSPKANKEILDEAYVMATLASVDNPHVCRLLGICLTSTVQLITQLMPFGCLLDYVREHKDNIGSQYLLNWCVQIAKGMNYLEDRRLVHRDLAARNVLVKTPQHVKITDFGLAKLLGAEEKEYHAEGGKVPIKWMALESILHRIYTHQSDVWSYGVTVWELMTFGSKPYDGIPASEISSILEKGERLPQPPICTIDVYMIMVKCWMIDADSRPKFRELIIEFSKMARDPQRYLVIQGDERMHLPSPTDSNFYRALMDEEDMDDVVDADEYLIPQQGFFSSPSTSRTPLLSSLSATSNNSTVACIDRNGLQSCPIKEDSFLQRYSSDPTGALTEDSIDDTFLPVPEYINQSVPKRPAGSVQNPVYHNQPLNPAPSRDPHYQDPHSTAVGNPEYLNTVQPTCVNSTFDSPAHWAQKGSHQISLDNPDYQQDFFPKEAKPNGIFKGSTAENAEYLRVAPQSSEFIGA
Procedure: as §1

EGFR S768dupSVD/C797S = biological target: T3, EGFR S768dupSVD/C797S (Homo sapiens, UniProt P00533, C797S/DUP768-770); assay: Ba/F3 cell viability, EGFR S768dupSVD/C797S; conditions: logarithm of IC50
T3 construct: expressed in transfected cells; host or cells: Ba/F3 (retroviral transduction, pBABE-Puro-based vectors)
Procedure: as §1

EGFR V769L = biological target: T4, EGFR V769L (Homo sapiens, UniProt P00533, V769L); assay: Ba/F3 cell viability, EGFR V769L; conditions: logarithm of IC50
T4 construct: expressed in transfected cells; host or cells: Ba/F3 (retroviral transduction, pBABE-Puro-based vectors)
Procedure: as §1

EGFR D770insNPG/T790M = biological target: T5, EGFR D770insNPG/T790M (Homo sapiens, UniProt P00533, INS770NPG/T790M); assay: Ba/F3 cell viability, EGFR D770insNPG/T790M; conditions: logarithm of IC50
T5 construct: expressed in transfected cells; host or cells: Ba/F3 (retroviral transduction, pBABE-Puro-based vectors)
Procedure: as §1

EGFR V769insGVV = biological target: T6, EGFR V769insGVV (Homo sapiens, UniProt P00533, INS769GVV); assay: Ba/F3 cell viability, EGFR V769insGVV; conditions: logarithm of IC50
T6 construct: expressed in transfected cells; host or cells: Ba/F3 (retroviral transduction, pBABE-Puro-based vectors)
T6 sequence (P00533 with tags, fused parts or gaps INS769GVV): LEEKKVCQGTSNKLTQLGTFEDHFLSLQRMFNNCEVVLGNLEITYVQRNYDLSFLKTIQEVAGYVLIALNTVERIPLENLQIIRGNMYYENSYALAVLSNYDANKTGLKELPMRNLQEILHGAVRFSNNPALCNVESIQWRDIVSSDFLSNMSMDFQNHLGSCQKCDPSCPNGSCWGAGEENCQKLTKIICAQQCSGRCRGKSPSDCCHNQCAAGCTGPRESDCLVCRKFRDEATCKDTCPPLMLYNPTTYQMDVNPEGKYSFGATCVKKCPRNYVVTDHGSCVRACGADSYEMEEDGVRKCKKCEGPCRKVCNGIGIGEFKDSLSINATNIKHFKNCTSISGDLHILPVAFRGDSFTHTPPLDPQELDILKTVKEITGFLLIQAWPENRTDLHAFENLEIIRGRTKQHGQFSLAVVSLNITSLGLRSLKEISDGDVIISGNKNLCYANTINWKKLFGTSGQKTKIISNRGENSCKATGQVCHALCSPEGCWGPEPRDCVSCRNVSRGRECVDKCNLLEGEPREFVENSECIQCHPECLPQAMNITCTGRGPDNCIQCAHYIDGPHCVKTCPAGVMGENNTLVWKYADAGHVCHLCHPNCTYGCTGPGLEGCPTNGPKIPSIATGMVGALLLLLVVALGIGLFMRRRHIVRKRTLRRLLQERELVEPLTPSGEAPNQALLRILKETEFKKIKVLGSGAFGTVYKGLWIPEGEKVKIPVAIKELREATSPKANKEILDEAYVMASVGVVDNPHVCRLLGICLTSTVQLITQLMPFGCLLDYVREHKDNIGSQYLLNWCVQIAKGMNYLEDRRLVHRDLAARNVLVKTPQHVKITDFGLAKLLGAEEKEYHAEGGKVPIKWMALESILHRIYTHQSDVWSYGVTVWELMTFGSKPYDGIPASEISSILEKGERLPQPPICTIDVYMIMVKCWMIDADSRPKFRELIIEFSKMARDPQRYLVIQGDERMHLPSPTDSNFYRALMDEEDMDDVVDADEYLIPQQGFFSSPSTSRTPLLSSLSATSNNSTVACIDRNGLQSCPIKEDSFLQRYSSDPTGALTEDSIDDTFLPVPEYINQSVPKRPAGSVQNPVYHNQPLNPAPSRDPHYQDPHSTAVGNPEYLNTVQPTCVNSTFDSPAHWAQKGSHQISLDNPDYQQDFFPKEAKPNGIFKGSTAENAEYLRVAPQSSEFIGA
Procedure: as §1

EGFR V769insMASVD = biological target: T7, EGFR V769insMASVD (Homo sapiens, UniProt P00533, INS769MASVD); assay: Ba/F3 cell viability, EGFR V769insMASVD; conditions: logarithm of IC50
T7 construct: expressed in transfected cells; host or cells: Ba/F3 (retroviral transduction, pBABE-Puro-based vectors)
Procedure: as §1

EGFR WT = biological target: T8, EGFR WT (Homo sapiens, UniProt P00533); assay: Ba/F3 cell viability (Cell Titer Glo), WT EGFR
T8 construct: expressed in transfected cells; host or cells: Ba/F3 (retroviral transduction, pBABE-Puro-based vectors)
T8 sequence (P00533 25-1210): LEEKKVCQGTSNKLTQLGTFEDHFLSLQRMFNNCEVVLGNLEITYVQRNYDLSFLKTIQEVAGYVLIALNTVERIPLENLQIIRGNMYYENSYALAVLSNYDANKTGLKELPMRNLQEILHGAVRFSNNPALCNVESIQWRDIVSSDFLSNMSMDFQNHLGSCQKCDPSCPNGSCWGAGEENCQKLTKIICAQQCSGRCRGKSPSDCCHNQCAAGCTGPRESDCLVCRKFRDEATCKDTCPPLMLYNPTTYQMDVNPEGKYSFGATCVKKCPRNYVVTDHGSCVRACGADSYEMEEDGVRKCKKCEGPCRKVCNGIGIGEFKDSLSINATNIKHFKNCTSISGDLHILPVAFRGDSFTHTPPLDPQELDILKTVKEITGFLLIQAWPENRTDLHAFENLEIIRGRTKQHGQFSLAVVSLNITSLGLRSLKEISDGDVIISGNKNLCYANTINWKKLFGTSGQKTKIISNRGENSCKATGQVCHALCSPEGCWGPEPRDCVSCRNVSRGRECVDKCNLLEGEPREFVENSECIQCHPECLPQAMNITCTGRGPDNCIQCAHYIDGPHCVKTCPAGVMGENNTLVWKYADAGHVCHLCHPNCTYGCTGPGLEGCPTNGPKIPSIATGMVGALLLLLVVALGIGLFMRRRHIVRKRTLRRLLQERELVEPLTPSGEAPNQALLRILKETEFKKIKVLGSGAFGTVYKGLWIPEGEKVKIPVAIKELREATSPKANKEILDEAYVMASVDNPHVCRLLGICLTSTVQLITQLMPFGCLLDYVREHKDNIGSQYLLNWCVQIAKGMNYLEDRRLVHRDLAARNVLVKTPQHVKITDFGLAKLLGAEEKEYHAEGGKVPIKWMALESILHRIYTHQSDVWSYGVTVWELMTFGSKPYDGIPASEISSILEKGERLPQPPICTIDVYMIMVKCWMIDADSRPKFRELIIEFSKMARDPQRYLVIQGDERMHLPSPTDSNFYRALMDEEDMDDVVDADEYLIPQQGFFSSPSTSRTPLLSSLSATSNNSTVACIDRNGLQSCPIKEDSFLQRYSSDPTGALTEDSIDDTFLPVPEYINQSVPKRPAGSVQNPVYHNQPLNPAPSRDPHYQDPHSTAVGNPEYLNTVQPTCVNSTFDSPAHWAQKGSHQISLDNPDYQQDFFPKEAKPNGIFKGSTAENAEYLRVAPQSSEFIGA
Procedure: as §1

EGFR S768I T790M = biological target: T9, EGFR S768I T790M (Homo sapiens, UniProt P00533, S768I/T790M); assay: Ba/F3 cell viability, EGFR S768I T790M; conditions: logarithm of IC50
T9 construct: expressed in transfected cells; host or cells: Ba/F3 (retroviral transduction, pBABE-Puro-based vectors)
Procedure: as §1

EGFR H773insAH = biological target: T10, EGFR H773insAH (Homo sapiens, UniProt P00533, INS773AH); assay: Ba/F3 cell viability, EGFR H773insAH; conditions: logarithm of IC50
T10 construct: expressed in transfected cells; host or cells: Ba/F3 (retroviral transduction, pBABE-Puro-based vectors)
Procedure: as §1

EGFR N771insSVDNR = biological target: T11, EGFR N771insSVDNR (Homo sapiens, UniProt P00533, INS771SVDNR); assay: Ba/F3 cell viability, EGFR N771insSVDNR
T11 construct: expressed in transfected cells; host or cells: Ba/F3 (retroviral transduction, pBABE-Puro-based vectors)
T11 sequence (P00533 with tags, fused parts or gaps INS771SVDNR): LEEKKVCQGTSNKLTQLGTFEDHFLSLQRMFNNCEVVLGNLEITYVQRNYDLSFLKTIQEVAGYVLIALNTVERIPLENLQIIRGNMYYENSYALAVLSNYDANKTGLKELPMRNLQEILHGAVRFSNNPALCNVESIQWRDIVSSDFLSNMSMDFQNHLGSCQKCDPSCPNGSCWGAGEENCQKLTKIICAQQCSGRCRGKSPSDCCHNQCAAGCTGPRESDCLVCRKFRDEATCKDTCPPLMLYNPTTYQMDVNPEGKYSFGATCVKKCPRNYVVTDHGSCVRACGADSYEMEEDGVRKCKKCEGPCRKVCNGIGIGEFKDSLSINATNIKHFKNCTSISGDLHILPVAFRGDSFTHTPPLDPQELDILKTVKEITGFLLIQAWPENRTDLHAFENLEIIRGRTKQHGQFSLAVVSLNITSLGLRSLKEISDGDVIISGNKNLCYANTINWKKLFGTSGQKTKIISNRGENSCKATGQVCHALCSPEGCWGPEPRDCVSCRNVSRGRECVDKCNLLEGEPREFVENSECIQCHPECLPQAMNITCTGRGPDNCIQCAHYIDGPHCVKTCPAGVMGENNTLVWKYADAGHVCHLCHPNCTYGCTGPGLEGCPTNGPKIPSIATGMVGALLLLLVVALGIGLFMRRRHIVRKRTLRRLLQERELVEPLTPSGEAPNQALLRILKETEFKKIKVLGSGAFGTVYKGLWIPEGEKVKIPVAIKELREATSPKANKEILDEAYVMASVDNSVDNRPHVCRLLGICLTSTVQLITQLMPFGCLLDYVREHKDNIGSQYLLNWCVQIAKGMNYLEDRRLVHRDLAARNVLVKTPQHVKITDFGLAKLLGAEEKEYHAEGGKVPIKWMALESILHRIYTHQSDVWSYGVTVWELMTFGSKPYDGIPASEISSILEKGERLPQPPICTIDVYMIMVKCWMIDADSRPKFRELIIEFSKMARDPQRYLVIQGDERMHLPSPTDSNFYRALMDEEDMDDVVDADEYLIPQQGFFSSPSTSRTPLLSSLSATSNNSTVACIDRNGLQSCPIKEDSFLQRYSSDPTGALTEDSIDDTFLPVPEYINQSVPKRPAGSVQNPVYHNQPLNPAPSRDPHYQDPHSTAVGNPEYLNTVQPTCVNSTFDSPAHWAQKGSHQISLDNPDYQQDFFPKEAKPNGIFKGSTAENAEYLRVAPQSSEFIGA
Procedure: as §1

EGFR D770insNPG/C797S = biological target: T12, EGFR D770insNPG/C797S (Homo sapiens, UniProt P00533, C797S/INS770NPG); assay: Ba/F3 cell viability, EGFR D770insNPG/C797S; conditions: logarithm of IC50
T12 construct: expressed in transfected cells; host or cells: Ba/F3 (retroviral transduction, pBABE-Puro-based vectors)
Procedure: as §1

EGFR P772insDNP = biological target: T13, EGFR P772insDNP (Homo sapiens, UniProt P00533, INS772DNP); assay: Ba/F3 cell viability, EGFR P772insDNP; conditions: logarithm of IC50
T13 construct: expressed in transfected cells; host or cells: Ba/F3 (retroviral transduction, pBABE-Puro-based vectors)
Procedure: as §1

EGFR V769insGSV = biological target: T14, EGFR V769insGSV (Homo sapiens, UniProt P00533, INS769GSV); assay: Ba/F3 cell viability, EGFR V769insGSV; conditions: logarithm of IC50
T14 construct: expressed in transfected cells; host or cells: Ba/F3 (retroviral transduction, pBABE-Puro-based vectors)
Procedure: as §1

EGFR N771insHH = biological target: T15, EGFR N771insHH (Homo sapiens, UniProt P00533, INS771HH); assay: Ba/F3 cell viability, EGFR N771insHH; conditions: logarithm of IC50
T15 construct: expressed in transfected cells; host or cells: Ba/F3 (retroviral transduction, pBABE-Puro-based vectors)
Procedure: as §1

EGFR S768dupSVD/T790M = biological target: T16, EGFR S768dupSVD/T790M (Homo sapiens, UniProt P00533, DUP768-770/T790M); assay: Ba/F3 cell viability, EGFR S768dupSVD/T790M; conditions: logarithm of IC50
T16 construct: expressed in transfected cells; host or cells: Ba/F3 (retroviral transduction, pBABE-Puro-based vectors)
Procedure: as §1

EGFR D770del insGY = biological target: T17, EGFR D770del insGY (Homo sapiens, UniProt P00533, D770Y/INS769G); assay: Ba/F3 cell viability, EGFR D770del insGY; conditions: logarithm of IC50
T17 construct: expressed in transfected cells; host or cells: Ba/F3 (retroviral transduction, pBABE-Puro-based vectors)
Procedure: as §1

Row | Structure (SMILES) | Log(IC50, nM) (EGFR A767insASV) [nM] | Log(IC50, nM) (EGFR H773L/V774M) | Log(IC50, nM) (EGFR A767insTLA) | Log(IC50, nM) (EGFR S768dupSVD/C797S) | Log(IC50, nM) (EGFR V769L) | Log(IC50, nM) (EGFR D770insNPG/T790M) | Log(IC50, nM) (EGFR V769insGVV) | Log(IC50, nM) (EGFR V769insMASVD) | Log(IC50, nM) (EGFR WT; Ba/F3 EGFR WT, comparison line of Table 3) | Log(IC50, nM) (EGFR WT; logarithm of IC50, Ba/F3 cells expressing EGFR WT, Cell Titer Glo, 3 days, Table 2) | Log(IC50, nM) (EGFR S768I T790M) | Log(IC50, nM) (EGFR H773insAH) | Log(IC50, nM) (EGFR N771insSVDNR; logarithm of IC50, first listing in Table 2 (r10)) | Log(IC50, nM) (EGFR N771insSVDNR; logarithm of IC50, second listing in Table 2 (r26)) | Log(IC50, nM) (EGFR D770insNPG/C797S) | Log(IC50, nM) (EGFR P772insDNP) | Log(IC50, nM) (EGFR V769insGSV) | Log(IC50, nM) (EGFR N771insHH) | Log(IC50, nM) (EGFR S768dupSVD/T790M) | Log(IC50, nM) (EGFR D770del insGY)
1 | CN(C)C/C=C/C(=O)Nc1cc2c(Nc3ccc(Cl)c(Br)c3)ncnc2cn1 [Example 1, (E)-N-(4-((3-Bromo-4-chlorophenyl)amino)pyrido[3,4-d]pyrimidin-6-yl)-4-(dimethylamino)but-2-enamide] | 0.55 |  |  |  |  |  |  |  |  |  |  |  |  |  |  |  |  |  |  | 
2 | CN(C)C/C=C/C(=O)Nc1cc2c(Nc3ccc(Cl)c(Cl)c3)ncnc2cn1 [Example 2, (E)-N-(4-((3,4-dichlorophenyl)amino)pyrido[3,4-d]pyrimidin-6-yl)-4-(dimethylamino)but-2-enamide] | 0.51 | 1.41 log(nM) | 0.83 log(nM) | 3.06 log(nM) | 0.98 log(nM) | 2.40 log10(nM) | 1.40 log(nM) | 0.88 log10(nM) | 1.03 log(nM) | 1.03 log(nM) | 0.81 log10(nM) | 0.88 log10(nM) | 0.98 log(nM) | 1.08 log(nM) | 2.73 log10(nM) | 0.94 log(nM) | 0.98 log(nM) | 0.33 log10(nM) | 2.73 log10(nM) | 0.71 log10(nM)

Reference: patent US20220194940A1, “HETEROCYCLIC INHIBITORS OF TYROSINE KINASE” (Board of Regents, The University of Texas System, priority 2019, published 2022)
